Tests used:
dopamine D-2 receptor = target: T1, dopamine D-2 receptor (Rattus norvegicus, UniProt P61169); assay: D-2 Binding: displacement of 3H-spiroperidol in homogenized limbic brain tissue
T1 construct: from tissue; host or cells: homogenized limbic brain tissue
Protocol: High affinity for the dopamine D2 receptor was established by the standard experimental test procedure of Fields, et al., Brain Res., 136, 578 (1977) and Yamamura et al., eds., Neurotransmitter Receptor Binding, Raven Press, New York (1978) wherein homogenized limbic brain tissue is incubated with ^3 H-spiroperidol and various concentrations of test compound, filtered and washed and shaken with Hydrofluor scintillation cocktail (National Diagnostics) and counted in a Packard 460 CD scintillation counter.

[1] = target: T2, serotonin 5-HT1A receptor (Rattus norvegicus, UniProt P19327); assay: 5-HT1A Binding: displacement of [3H] 8-OHDPAT
T2 construct: following the procedure of Hall et al., J. Neurochem; 44, 1685 (1985); from tissue; host or cells: brain tissue (from the cited method)
T2 sequence (P19327 1-422): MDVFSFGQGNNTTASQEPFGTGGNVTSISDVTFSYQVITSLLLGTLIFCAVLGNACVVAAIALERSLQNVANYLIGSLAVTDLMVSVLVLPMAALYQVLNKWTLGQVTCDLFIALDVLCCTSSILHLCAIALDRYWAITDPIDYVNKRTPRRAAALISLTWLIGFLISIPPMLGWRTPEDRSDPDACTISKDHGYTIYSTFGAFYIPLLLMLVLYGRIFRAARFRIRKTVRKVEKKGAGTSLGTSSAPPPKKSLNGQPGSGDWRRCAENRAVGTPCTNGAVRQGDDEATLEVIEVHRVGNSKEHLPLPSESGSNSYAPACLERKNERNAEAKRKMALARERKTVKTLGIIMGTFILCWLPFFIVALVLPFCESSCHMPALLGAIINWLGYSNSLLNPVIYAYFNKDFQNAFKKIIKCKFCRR
Description: High affinity for the serotonin 5-HT1A receptor was established by testing the claimed compound's ability to displace [^3 H] 8-OHDPAT (dipropylaminotetralin) from the 5-HT1A serotonin receptor following the procedure of Hall et al., J. Neurochem. 44, 1685 (1985). […] The anxiolytic activity of buspirone is believed to be, at least partially, due to its 5-HT1A receptor affinity (Vander Maclen et al., Eur. J. Pharmacol. 1986, 129 (1-2) 133-130).

[2] = system: serotonin syndrome (5-HT1A); assay: Production of the serotonin syndrome (agonist activity); format: in vivo, male Sprague-Dawley CD rats; details: for ED50: Rattus norvegicus, 0.25 h, first 15 minutes after compound administration, read-out: ED50 for producing the serotonin syndrome
Protocol: (§1) Certain of the compounds of this invention were also compared to buspirone in their ability to either produce or antagonize the serotonin syndrome according to the procedure of Smith and Peroutka, Pharmacol. Biochem. Behav. 24: 1513-1519, 1986, in which 250-350 g male Sprague-Dawley CD rats (Charles River) are given either test compound or vehicle and placed individually into plexiglass observation cages. Agonist activity of the compound is determined by scoring for the presence of the serotonin syndrome (forepaw treading, head weaving, tremor, hindlimb abduction, flattened body posture, and Straub tail) during the first 15 minutes after compound administration. Antagonist activity is then determined by a challenge with either of the 5-HT1A agonists 5-methoxy-N,N-dimethyltryptamine (5-MeODMT) or 8-hydroxydipropylaminotetralin.

[3] = system: serotonin syndrome (5-HT1A); assay: Antagonism of 5-HT1A agonist-induced (5-MeODMT or 8-OH-DPAT) serotonin syndrome; format: in vivo, male Sprague-Dawley CD rats; details: for ED50: Rattus norvegicus, rats
Protocol: as §1

5-HT1A receptor = details: cited from earlier work
[4] = target: T2, serotonin 5-HT1A receptor; details: buspirone, standard for anxiolytic activity; cited from earlier work

T1 sequence (P61169 whole entry): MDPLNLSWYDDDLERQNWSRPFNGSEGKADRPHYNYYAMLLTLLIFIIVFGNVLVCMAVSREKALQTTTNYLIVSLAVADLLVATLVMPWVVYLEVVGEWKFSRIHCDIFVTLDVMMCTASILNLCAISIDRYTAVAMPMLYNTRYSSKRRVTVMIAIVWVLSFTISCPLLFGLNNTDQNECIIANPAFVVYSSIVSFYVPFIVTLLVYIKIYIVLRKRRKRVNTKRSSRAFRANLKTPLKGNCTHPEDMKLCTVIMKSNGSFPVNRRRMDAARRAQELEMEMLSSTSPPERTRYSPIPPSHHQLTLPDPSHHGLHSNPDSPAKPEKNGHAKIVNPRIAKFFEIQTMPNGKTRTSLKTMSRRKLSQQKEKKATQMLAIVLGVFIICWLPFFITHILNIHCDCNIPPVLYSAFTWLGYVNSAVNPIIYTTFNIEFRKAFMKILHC

Row | Structure (SMILES) | inhibition at 1 µM (dopamine D-2 receptor) [%] | inhibition at 0.1 µM [1] [%] | also measured
1 | CC1(C)[C@H]2CC[C@]1(CS(=O)(=O)NCCNCC1COc3ccccc3O1)C(=O)C2 (single isomer, unassigned) [Example 8] | 49 | 90 | IC50 ([1]; 5-HT1A binding): 9 nM
2 | CC1(C)C2CCC1(C(=O)NCCNCC1COc3ccccc3O1)C(=O)C2 (single isomer, unassigned; (+)) [Example 5, (+)-N-[2-[[(2,3-Dihydro-1,4-benzodioxin-2-yl)methyl]amino]ethyl]-7,7-dimethyl-2-oxobicyclo[2,2,1]heptane-1-carboxamide] | 34 | 97 | ED50 ([2]; rats): 3.8 mg/kg; EC50 ([1]; 5-HT1A binding, given as EC50): 3 nM; ED50 ([3]; challenge with 8-OH-DPAT, read-out: ED50 for antagonizing 8-OH-DPAT induced syndrome): 4.7 mg/kg
3 | O=C1CC2(CCCC2)CC(=O)N1CCCCNCC1COc2ccccc2O1 (single isomer, unassigned; (-)) [(-)-MDL 72832] |  |  | binding relative to the dextrorotary isomer at the 5-HT1A receptor site (5-HT1A receptor; (-)-isomer vs dextrorotary isomer): 32 times
4 | CC1(C)C2CCC1(C(=O)NCCNCC1COc3ccccc3O1)C(=O)C2 (single isomer, unassigned; (-)) [Example 6] | 34 | 88 | characterization as agonist/antagonist in the serotonin syndrome test ([2]; single dose of 20 mg/kg): partial agonist
5 | O=C(NCCNCC1COc2ccccc2O1)C12CC3CC(CC(C3)C1)C2 (stereo not drawn) [Example 1, N-[2-[[(2,3-Dihydro-1,4-benzodioxin-2-yl)methyl]amino]ethyl]tricyclo[3,3,1,1(3,7)]-decane-1-carboxamide] | 83 | 100 | 
6 | O=C(OCCNCC1COc2ccccc2O1)C12CC3CC(CC(C3)C1)C2 (stereo not drawn) [Example 2, Tricyclo[3,3,1,1(3,7)]decane-1-carboxylic acid 2-[[(2,3-dihydro-1,4-benzodioxin-2-yl)methyl]amino]ethyl ester] | 91 | 100 | 
7 | O=C(NCCNCC1COc2ccccc2O1)NC12CC3CC(CC(C3)C1)C2 (stereo not drawn) [Example 3, N-[2-[(2,3-Dihydro-1,4-benzodioxin-2-yl)methylamino]ethyl]-N'-tricyclo[3,3,1,1(3,7)]dec-1-ylurea] | 27 | 98 | production of the serotonin syndrome on its own ([2]; compound alone, rats): did not produce the syndrome on its own; IC50 ([1]; 5-HT1A binding): 5 nM; ability to antagonize the serotonin syndrome ([3]; 1.0, 3.3, 10.0, and 33.0 mg/kg): mimicked buspirone's ability to antagonize the serotonin syndrome
8 | O=C(NCCNCC1COc2ccccc2O1)NC12CC3CC(CC1C3)C2 (stereo not drawn) [Example 4, N-[2-[(2,3-Dihydro-1,4-benzodioxin-2-yl)methyl]aminoethyl-N'-hexahydro-2,5-methanopentalen-3a(1H)-yl]urea] | 55 | 95 | 
9 | O=C(NCCNCC1COc2ccccc2O1)C12CC3CC(CC1C3)C2 (stereo not drawn) [Example 7, N-[2-[[(2,3-Dihydro-1,4-benzodioxin-2-yl)methyl]amino]ethyl]hexahydro-2,5-methanopentalene-3a(1H)-carboxamide] | 81 | 98 | 
10 | O=C1CC2(CCCC2)CC(=O)N1CCCCNCC1COc2ccccc2O1 (stereo not drawn) [MDL 72832, 8-[4-(1,4-benzodioxan-2-ylmethylamino)butyl]-8-azaspiro[4.5]decane-7,9-dione] |  |  | 5-HT1A ligand character (in words) (5-HT1A receptor): selective and stereospecific
11 | O=C1CC2(CCCC2)CC(=O)N1CCCCN1CCN(c2ncccn2)CC1 [buspirone, reference compound] |  |  | ED50 ([2]; rats): 7.3 mg/kg; characterization as agonist/antagonist in the serotonin syndrome test ([2]; buspirone: from ED50s for production and antagonism): partial agonist; affinity for the 5-HT1A serotonin receptor subtype (in words) [4]: potent affinity; ED50 ([3]; challenge with 5-MeODMT, read-out: ED50 for antagonizing 5-MeODMT-induced syndrome): 4.6 mg/kg
